Experimental data published in ChEMBL document CHEMBL1127104, “L-708,474: The C5-cyclohexyl analogue of L-365,260, a selective high affinity ligand for the CCKB/gastrin receptor” (Bioorg Med Chem Lett, 1993).

Target: T1, Cholecystokinin receptor type A (Rattus norvegicus, UniProt P30551)
T1 sequence (P30551 whole entry): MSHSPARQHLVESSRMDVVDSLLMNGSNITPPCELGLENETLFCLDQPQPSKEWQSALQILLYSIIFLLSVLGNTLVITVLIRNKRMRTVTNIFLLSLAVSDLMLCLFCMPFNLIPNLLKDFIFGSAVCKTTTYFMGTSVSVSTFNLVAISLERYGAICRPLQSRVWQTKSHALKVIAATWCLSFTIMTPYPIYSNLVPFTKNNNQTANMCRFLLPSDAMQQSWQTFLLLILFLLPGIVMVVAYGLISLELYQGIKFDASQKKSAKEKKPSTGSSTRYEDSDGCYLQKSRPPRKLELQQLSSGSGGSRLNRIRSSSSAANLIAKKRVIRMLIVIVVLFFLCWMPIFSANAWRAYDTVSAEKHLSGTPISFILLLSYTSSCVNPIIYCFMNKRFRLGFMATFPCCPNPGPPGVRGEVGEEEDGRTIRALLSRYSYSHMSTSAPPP
Assay: In vitro test for inhibition of [125I]CCK binding to Cholecystokinin type A receptor from rat pancreatic tissues was determined

| SMILES | IC50 |
| --- | --- |
| Cc1cccc(NC(=O)NC2N=C(C3CCC3)c3ccccc3N(C)C2=O)c1 (stereo not drawn) | 0.402 µM |
| Cc1cccc(NC(=O)NC2N=C(C3CCCC3)c3ccccc3N(C)C2=O)c1 (stereo not drawn) | 0.0271 µM |
| Cc1cccc(NC(=O)N[C@@H]2N=C(c3ccccc3)c3ccccc3N(C)C2=O)c1 [L-365260] | 0.736 µM |
